Data as given in publication PMC12071940, “Shortened PGLYRP1 Peptides Regulate Antitumor Activity of Cytotoxic Lymphocytes via TREM-1 Receptor: From Biology to Bioinformatics” (International Journal of Molecular Sciences, 2025).
Ends that are not written are not given here.

Columns and labels:
MHC-negative tumor cells = conditions: ref [24,27,42]; cited from earlier work
Text: The interaction of ligands with TREM-1 on the cell membrane leads to dimerization of the receptor, followed by activation of the metalloprotease MMP-9 [37], cleavage, and dissociation of the exodomain from the cell surface. sTREM-1 is considered a biomarker of infection and viral diseases. Further activation of the receptor develops in two ways. Triggering cascades of tyrosine kinases leads to activation of the NFkß factor, expression of pro-inflammatory cytokines, and development of inflammatory processes. In turn, the release of cytokines leads to the appearance of ...

tumor cells (K562) = tested on: tumor cells (K562); set-up: method as in printed at the place; conditions: other TREM-1 ligands, 'just as it was shown'; no ref given; cited from earlier work
TREM-1 receptor [1] = experiment: Inhibition of cytotoxicity induced by the sum of N9 and N15 peptides; assay type: cell-based, human; conditions: PBMC with N9 + N15, 6 days; K562
Protocol: (§1) The combined effect of these peptides stimulated the activation of cytotoxic lymphocytes. […] In addition, the induction of the cytotoxic effect of lymphocytes is TREM-1-dependent.
(§2) For cytotoxicity tests, cells of the K562 line were cultured in 96-well plates (Luoyang Fudau Biotech Co, Luoyang, Henan, China) (6 × 10^4 per well) before the addition of lymphocytes (1.2 × 10^6 per well) and then incubated at 37 °C in an atmosphere with 5% CO2 for 3–20 h. Cytotoxicity was measured using a Cytotox 96 analysis kit (Promega, Madison, WI, USA) after 24 h of incubation in accordance with the manufacturer’s protocol. […] Polyclonal antibodies to Tag7 were obtained from ABclonal (ABclonal, Woburn, MA, USA). Monoclonal antibodies to TREM-1 were obtained from Thermo Fisher Scientific (Thermo Fisher Scientific, Waltham, MA, USA).

K562 cells = experiment: Cytotoxic activity of human PBMC incubated 6 days with Tag7 peptides (single or combined), tested on K562 cells; assay type: cell-based; conditions: single peptide, 10^−9 M, human PBMC 6 days, then K562; n = 5
Protocol: The synthesized peptides were incubated with isolated human PBMC for 6 days. Thereafter, the activated lymphocytes were added to MHC-negative tumor cells of the K562 line, and their cytotoxic effect on these cells was determined.
as §1
K562, RAW264.7 cells were cultivated in RPMI-1640 (Himedia Laboratories Private Limited, Maharashtra, India) with 2 mM L glutamine, 10% FCS (Invitrogen, Carlsbad, CA, USA), with 1% kanamycin (Thermo Fisher Scientific, Waltham, MA, USA). […] CD4+ (CD8+) T-lymphocytes were isolated from the PBMCs using the Dynabeads^TM Untouched^TM Human CD4 T Cells Kit, and NK cells were isolated from PBMC by Dynabeads^TM Untouched^TM Human NK Cells Kit according to the manufacturer’s protocol (Thermo Fisher Scientific, Waltham, MA, USA).
as §2

TREM-1 receptor [2] = experiment: Inhibition of cytotoxic activity of PBMC induced by peptide N3; assay type: cell-based, human; conditions: PBMC preincubated 1 h with peptide (10^−9 M), then N3 added; cytotoxicity after 6 days, K562
Protocol: The inhibitory and activating activities were investigated. To determine the inhibitory activity, PBMC were preincubated with the studied peptides for 1 h, then the activating peptide N3 was added, and the cytotoxic activity of lymphocytes was determined after 6 days.
as §2

Substance | stimulation of cytokines and activation of cytotoxic lymphocytes (MHC-negative tumor cells) | type of tumor cell death induced (tumor cells (K562)) | inhibition of cytotoxicity of the sum of N9 and N15 (TREM-1 receptor [1]) | activation of cytotoxic lymphocytes (K562 cells) | inhibition of N3-stimulated cytotoxic activity (TREM-1 receptor [2])
HMGB1: multifunctional protein, TREM-1 ligand | not only stimulate the production of pro-inflammatory cytokines but also induce the activation of cytotoxic lymphocytes against MHC-negative tumor cells | induced apoptosis and necroptosis in tumor cells |  |  | 
Hsp70: main heat shock protein, TREM-1 ligand | not only stimulate the production of pro-inflammatory cytokines but also induce the activation of cytotoxic lymphocytes against MHC-negative tumor cells | induced apoptosis and necroptosis in tumor cells |  |  | 
LQVTDSGLYRCVIYHPP [LP17, reference compound] |  |  | inhibited |  | 
PASCQQQAR [N9] |  |  |  | do not activate cytotoxic lymphocytes | inhibited the development of cytotoxic activity stimulated by peptide N3
RNVQHYHMKT [17.0] |  |  | inhibited | do not activate cytotoxic lymphocytes | inhibited the development of cytotoxic activity stimulated by peptide N3
RYVVVSHTAGSSCNT [N15] |  |  |  | do not activate cytotoxic lymphocytes | had no inhibitory effect on the induction of the TREM-1-dependent signal
Tag7: innate immunity protein PGLYRP1; recombinant Tag7 | not only stimulate the production of pro-inflammatory cytokines but also induce the activation of cytotoxic lymphocytes against MHC-negative tumor cells | induced apoptosis and necroptosis in tumor cells |  |  | 
